Reference: patent US20240384268A1, “Oligonucleotides” (Hudson Institute of Medical Research, priority 2021, published 2024)
In the oligonucleotide strings, read from the 5' end, every base follows the letter of its sugar. An asterisk marks phosphorothioate; unmarked linkages are phosphodiester. Other units and linkages are bracketed, terminal groups are in braces. A string of capitals states the bases alone. d = 2'-deoxy (DNA); m = 2'-O-methyl

biological target: cGAS (Homo sapiens, UniProt Q8N884); experiment: ISD70-driven IP-10 (and IFN-β) production in THP-1 cells, ELISA; assay type: cell-based; set-up: endogenous in cells; host or cells: THP-1 (undifferentiated); conditions: MOE-modified ASO at 100 nM; averaged IP-10 levels relative to ISD70 condition
Sequence (Q8N884 whole entry): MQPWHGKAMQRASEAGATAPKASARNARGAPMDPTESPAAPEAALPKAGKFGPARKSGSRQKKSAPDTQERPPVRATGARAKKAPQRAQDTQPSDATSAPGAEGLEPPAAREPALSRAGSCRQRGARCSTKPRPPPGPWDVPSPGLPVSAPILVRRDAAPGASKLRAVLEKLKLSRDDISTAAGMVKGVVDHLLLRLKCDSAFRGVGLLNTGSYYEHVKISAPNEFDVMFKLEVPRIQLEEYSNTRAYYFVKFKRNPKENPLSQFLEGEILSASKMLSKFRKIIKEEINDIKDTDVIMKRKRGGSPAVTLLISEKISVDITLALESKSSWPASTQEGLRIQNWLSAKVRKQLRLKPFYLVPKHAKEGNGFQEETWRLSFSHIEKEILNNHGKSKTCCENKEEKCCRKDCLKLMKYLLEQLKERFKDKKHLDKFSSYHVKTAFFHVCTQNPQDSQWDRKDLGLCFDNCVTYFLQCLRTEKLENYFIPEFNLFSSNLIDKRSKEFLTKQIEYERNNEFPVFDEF

Row | Substance | cGAS 100 nM
1 | AGTCGTAGTTGCTTCCTAAC (antisense; 2'-MOE modified, pattern not given here) [MB21D1-1181 MOE] | 0.261
2 | ATGCCATCCACTTGATAGGC (antisense; 2'-MOE modified, pattern not given here) [EGFR-2874 MOE] | 0.639
3 | CGGAGGTCTTGGCTTCGTGG (antisense; 2'-MOE modified, pattern not given here) [MB21D1-525 MOE] | 0.111
4 | CGGCATCCACCACGTCGTCC (antisense; 2'-MOE modified, pattern not given here) [EGFR-3267 MOE] | 0.378
5 | GCCCATCCATGAGGTCCTGG (antisense; 2'-MOE modified, pattern not given here) [CTNN2B-2545 MOE] | 0.592
6 | GCTGACAAAGATTCACTGGT (antisense; 2'-MOE modified, pattern not given here) [HPRT-1353 MOE] | 0.335
7 | GGGTATCGAAAGAGTCTGGA (antisense; 2'-MOE modified, pattern not given here) [EGFR-3908 MOE] | 0.427
8 | GGTTTTGGCTGGGATCAAGT (antisense; 2'-MOE modified, pattern not given here) [CAMSAP1-4697 MOE] | 0.375
9 | GTCCAAGATCAGCAGTCTCA (antisense; 2'-MOE modified, pattern not given here) [CTNN2B-2341 MOE] | 0.705
10 | TCCGGCCTCGGAAGCTCTCT (antisense; 2'-MOE modified, pattern not given here) [MB21D1-168 MOE] | 0.250
11 | TGGCAGGCTCAGTGATGTCT (antisense; 2'-MOE modified, pattern not given here) [CTNN2B-1642 MOE] | 0.605
12 | TGGGCTGGAATCCGAGTTAT (antisense; 2'-MOE modified, pattern not given here) [EGFR-4705 MOE] | 0.433
13 | TGGGTTACGGCTCAGTATGG (antisense; 2'-MOE modified, pattern not given here) [CAMSAP1-4295 MOE] | 0.432
14 | TTTGCACACTTCGTACCCAA (antisense; 2'-MOE modified, pattern not given here) [CAMSAP1-4916 MOE] | 0.335

same assay, conditions: THP-1; 100 nM ASO overnight, then ISD70 2.5 μg/ml 7-8 h; percentage of ISD70 only

Row | Substance | cGAS-100 nM: averaged IP-10 levels relative to ISD70
15 | mA*mA*mA*mA*mG*A*T*T*A*T*C*T*T*C*T*mU*mU*mU*mA*mA (AAAAGATTATCTTCTUUUAA; sugars from the 5' end m5 d10 m5, all phosphorothioate, methylation of C not given here) [[CDKN2B-AS1]2133] | 57.68%
16 | mA*mA*mA*mA*mU*A*A*G*G*G*G*A*A*T*A*mG*mG*mG*mG*mA (mA*mA*mA*mA*mU*dA*dA*dG*dG*dG*dG*dA*dA*dT*dA*mG*mG*mG*mG*mA; antisense) [[CDKN2B-AS1]79] | 94.10%
17 | mA*mA*mA*mG*mA*T*T*A*T*C*T*T*C*T*T*mU*mU*mA*mA*mU (mA*mA*mA*mG*mA*dT*dT*dA*dT*dC*dT*dT*dC*dT*dT*mU*mU*mA*mA*mU) [[CDKN2B-AS1]2132] | 74.59%
18 | mA*mA*mA*mU*mG*T*C*C*T*G*G*C*C*C*T*mC*mA*mC*mU*mG (mA*mA*mA*mU*mG*dT*dC*dC*dT*dG*dG*dC*dC*dC*dT*mC*mA*mC*mU*mG) [[LINC-PINT]148.1] | 66.46%
19 | mA*mA*mG*mA*mU*T*A*T*C*T*T*C*T*T*T*mU*mA*mA*mU*mU (mA*mA*mG*mA*mU*dT*dA*dT*dC*dT*dT*dC*dT*dT*dT*mU*mA*mA*mU*mU) [[CDKN2B-AS1]2131] | 73.50%
20 | mA*mA*mG*mG*mU*G*G*C*C*A*C*A*G*G*C*mA*mA*mC*mG*mU (mA*mA*mG*mG*mU*dG*dG*dC*dC*dA*dC*dA*dG*dG*dC*mA*mA*mC*mG*mU; antisense) [[CDKN2B-AS1]2198] | 60.48%
21 | mA*mA*mU*mA*mU*C*T*G*C*T*G*C*C*C*A*mC*mC*mU*mU*mC (mA*mA*mU*mA*mU*dC*dT*dG*dC*dT*dG*dC*dC*dC*dA*mC*mC*mU*mU*mC; antisense) [[CDKN2B-AS1]832] | 83.17%
22 | mA*mA*mU*mU*mU*A*A*A*G*C*A*T*G*A*A*mU*mA*mU*mU*mA (mA*mA*mU*mU*mU*dA*dA*dA*dG*dC*dA*dT*dG*dA*dA*mU*mA*mU*mU*mA) [[CDKN2B-AS1]645] | 67.63%
23 | mA*mC*mC*mC*mU*T*C*T*C*T*C*T*G*G*T*mC*mC*mC*mA*mU (mA*mC*mC*mC*mU*dT*dC*dT*dC*dT*dC*dT*dG*dG*dT*mC*mC*mC*mA*mU; antisense) [[LINC-PINT]115] | 89.81%
24 | mA*mG*mA*mA*mA*G*A*A*G*C*A*A*A*G*A*mU*mU*mC*mA*mA (AGAAAGAAGCAAAGAUUCAA; sugars from the 5' end m5 d10 m5, all phosphorothioate, methylation of C not given here) [[CDKN2B-AS1]1519] | 49.09%
25 | mA*mG*mA*mU*mU*A*T*C*T*T*C*T*T*T*T*mA*mA*mU*mU*mU (AGAUUATCTTCTTTTAAUUU; sugars from the 5' end m5 d10 m5, all phosphorothioate, methylation of C not given here) [[CDKN2B-AS1]2130] | 55.80%
26 | mA*mG*mC*mC*mG*A*A*C*A*G*A*A*G*G*A*mG*mC*mG*mU*mC (AGCCGAACAGAAGGAGCGUC; sugars from the 5' end m5 d10 m5, all phosphorothioate, methylation of C not given here) [[LINC-PINT]587 KL] | 39.92%
27 | mA*mG*mG*mA*mU*T*A*A*A*A*C*A*G*A*T*mU*mA*mA*mU*mA (mA*mG*mG*mA*mU*dT*dA*dA*dA*dA*dC*dA*dG*dA*dT*mU*mA*mA*mU*mA) [[CDKN2B-AS1] 1775] | 88.54%
28 | mA*mG*mG*mC*mC*T*C*C*A*G*T*G*T*C*T*mU*mC*mU*mC*mC (mA*mG*mG*mC*mC*dT*dC*dC*dA*dG*dT*dG*dT*dC*dT*mU*mC*mU*mC*mC; antisense) [[CDKN2B-AS1]2218] | 62.85%
29 | mA*mU*mA*mU*mC*T*G*C*T*G*C*C*C*A*C*mC*mU*mU*mC*mU (AUAUCTGCTGCCCACCUUCU; antisense; sugars from the 5' end m5 d10 m5, all phosphorothioate, methylation of C not given here) [[CDKN2B-AS1]831] | 108.01%
30 | mA*mU*mG*mA*mC*A*T*T*T*C*G*T*G*G*C*mU*mC*mC*mU*mA (mA*mU*mG*mA*mC*dA*dT*dT*dT*dC*dG*dT*dG*dG*dC*mU*mC*mC*mU*mA) [[LINC-PINT]524.1] | 99.38%
31 | mC*mA*mA*mG*mC*C*C*C*A*G*C*G*T*T*C*mC*mU*mC*mC*mG (mC*mA*mA*mG*mC*dC*dC*dC*dA*dG*dC*dG*dT*dT*dC*mC*mU*mC*mC*mG; antisense) [[LINC-PINT]83.1] | 77.10%
32 | mC*mA*mC*mC*mC*T*T*C*T*C*T*C*T*G*G*mU*mC*mC*mC*mA (CACCCTTCTCTCTGGUCCCA; antisense; sugars from the 5' end m5 d10 m5, all phosphorothioate, methylation of C not given here) [[LINC-PINT]116] | 97.19%
